According to US8853279B2, “Method for determining sensitivity or resistance to compounds that activate the brain serotonin system” (Cornell University, priority 2008, dated 2014):

How the values were obtained:
BDNF^Met/Met mice = assay: Novelty-induced hypophagia after long-term fluoxetine in adult mice; assay type: in vivo; details: adult P60 BDNF^Met/Met mice; fluoxetine orally 18 mg/kg of body weight per day for 21 days
Description: A common treatment for depression and anxiety disorders in humans is administering serotonin reuptake inhibitors (SSRI's), for which one postulated mechanism of action involves increasing BDNF levels (R. S. Duman, L. M. Monteggia, Biol Psychiatry 59, 1116 (Jun. 15, 2006)). Adult P60 BDNF^Met/Met mice were treated orally with fluoxetine (18 mg/kg of body weight per day) or vehicle for 21 days before assessment in novelty-induced hypophagia. In this conflict test, mice are trained to approach a reward (sweetened milk) in their home cage and then placed in a novel brightly lit cage. The latency to approach and drink the sweetened milk is a measure of the anxiety-related behavior associated with this task (S. C. Dulawa, K. A. Holick, B. Gundersen, R. Hen, Neuropsychopharmacology 29, 1321 (July, 2004)).

P60 BDNF^Met/Met mice = assay: Two anxiety tests, response to chronic fluoxetine; assay type: in vivo
From the text: It was chosen to continue to use fluoxetine as it is the prototypic SSRI that has been established to increase BDNF levels, and for which a significant amount of clinical data on response to affective disorders.

BDNF^Met mice = assay: Elevated plus maze at P90 after early life fluoxetine (P21-P40); assay type: in vivo; details: fluoxetine 18 mg/kg per day via drinking water P21-P40, tested at P90
From the text: (§1) FIG. 9. Anxiety-related behavior after early life flouxetine in BDNF Val66Met mice in the elevated plus maze test. (A). Percentage time spent in the open arm (B) and percentage of open arm entries in the plus maze, as well as (C) total distance traveled in wildtype) WT and BDNF^Met/Met (Met/Met) mice treated with water (H2O) or with flouxetine (FLX) from P21-P40. All results are presented as a mean±SEM determined from analysis of 5 mice/genotype (*p<0.05), Student's t test.
(§2) The feasibility of these timed pharmacological studies was first assessed. To BDNFMet mice, chronic fluoxetine (18 mg/kg per day) was administered via the drinking water from P21 (post-weaning)-P40 (adolescence) (FIG. 8) for a duration of time established to produce increased BDNF levels and anti-anxiety effects in adult mice [Dulawa, S. C., Holick, K. A., Gundersen, B., and Hen, R. (2004). Effects of chronic fluoxetine in animal models of anxiety and depression. Neuropsychopharmacology 29, 1321-1330; Duman, R. S., and Monteggia, L. M. (2006). A neurotrophic model for stress-related mood disorders. Biol Psychiatry 59, 1116-1127].
(§3) Early-life blockade of the 5-HT transporter alters emotional behavior in adult mice. Science 306, 879-881], which was not observed by this P21-P40 timed treatment.

wildtype mice = assay: as above; assay type: in vivo; details: fluoxetine 18 mg/kg per day via drinking water P21-P40, tested at P90
From the text: as §1, §2, §3

mice = details: fluoxetine treatment at P4-P21; Ansorge et al. 2004; cited from earlier work

CNCCC(Oc1ccc(C(F)(F)F)cc1)c1ccccc1 (centres unmarked) [fluoxetine]
latency to drink in the novel cage (BDNF^Met/Met mice): did not significantly decrease
response to chronic fluoxetine as measured by two anxiety tests (P60 BDNF^Met/Met mice): decreased response
anxiety-related behavior in the elevated plus maze test (BDNF^Met mice): rescue of altered anxiety-related behavior
anxiety-related behaviors in the elevated plus maze test (wildtype mice): No effects were observed
anxiety-related behaviors (mice): increased anxiety-related behaviors
